Experimental data reported in PubChem BioAssay AID2060511 (Molecular Pharmacology Branch, DTP, NCI, 2025).
pIC50: −log10 of the molar value.

Tested on: 422866-222-R5-J1-PDC spheroids with HUVEC/MSC, viability
Test: Anticancer human tumor 422866-222-R5-J1-PDC patient-derived pancreatic adenocarcinoma cell line growth inhibition [GQUAD]
Details: for pIC50: curve of first compound; for viability, T/C: stronger effect = lower value; active = viability on the fitted dose curve at most 10% of control; inactive = the rest
Summary of the method: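 Multi-cell-type spheroids of tumor cells with HUVEC and mesenchymal stem cells, treated with drug combinations. Concentrations descend in half-log steps from near clinical Cmax, or from 10 microM where Cmax is unknown; viability read-out.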

[1] = second compound 0.0316 µM, first compound 0.0316 µM
[2] = second compound 0.0316 µM, first compound 0.1 µM
[3] = second compound 0.0316 µM, first compound 0.316 µM
[4] = second compound 0.0316 µM, first compound 1 µM
[5] = second compound 0.0316 µM, first compound 3.16 µM
[6] = second compound 0.0316 µM, first compound 10 µM
[7] = second compound 0.1 µM, first compound 0.0316 µM
[8] = second compound 0.1 µM, first compound 0.1 µM
[9] = second compound 0.1 µM, first compound 0.316 µM
[10] = second compound 0.1 µM, first compound 1 µM
[11] = second compound 0.1 µM, first compound 3.16 µM
[12] = second compound 0.1 µM, first compound 10 µM
[13] = second compound 0.316 µM, first compound 0.0316 µM
[14] = second compound 0.316 µM, first compound 0.1 µM
[15] = second compound 0.316 µM, first compound 0.316 µM
[16] = second compound 0.316 µM, first compound 1 µM
[17] = second compound 0.316 µM, first compound 3.16 µM
[18] = second compound 0.316 µM, first compound 10 µM
[19] = second compound 1 µM, first compound 0.0316 µM
[20] = second compound 1 µM, first compound 0.1 µM
[21] = second compound 1 µM, first compound 0.316 µM
[22] = second compound 1 µM, first compound 1 µM
[23] = second compound 1 µM, first compound 3.16 µM
[24] = second compound 1 µM, first compound 10 µM
[25] = second compound 3.16 µM, first compound 0.0316 µM
[26] = second compound 3.16 µM, first compound 0.1 µM
[27] = second compound 3.16 µM, first compound 0.316 µM
[28] = second compound 3.16 µM, first compound 1 µM
[29] = second compound 3.16 µM, first compound 3.16 µM
[30] = second compound 3.16 µM, first compound 10 µM
[31] = second compound 10 µM, first compound 0.0316 µM
[32] = second compound 10 µM, first compound 0.1 µM
[33] = second compound 10 µM, first compound 0.316 µM
[34] = second compound 10 µM, first compound 1 µM
[35] = second compound 10 µM, first compound 3.16 µM
[36] = second compound 10 µM, first compound 10 µM
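Note: spheroids exposed to compounds for seven days before reading.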
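Throughout, for viability, T/C: percent viability relative to DMSO vehicle control taken as 100%.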

Nc1ccn(C2OC(CO)C(O)C2(F)F)c(=O)n1 (stereo unspecified) + Cc1cnc(CNC(=O)c2c(=O)c3ccc(N4CCCN(C)CC4)nc3n3c2sc2ccccc23)cn1
inactive: viability, T/C [1] 86.7% | viability, T/C [2] 67.8% | viability, T/C [3] 69.1% | viability, T/C [4] 47.2% | viability, T/C [5] 41.9% | viability, T/C [6] 43% | viability, T/C [7] 85.6% | viability, T/C [8] 87% | viability, T/C [9] 70.7% | viability, T/C [10] 48.6% | viability, T/C [11] 50.8% | viability, T/C [12] 54.8% | viability, T/C [13] 96.5% | viability, T/C [14] 81% | viability, T/C [15] 70.3% | viability, T/C [16] 62.3% | viability, T/C [17] 54.1% | viability, T/C [18] 58.1% | viability, T/C [19] 78.2% | viability, T/C [20] 72.7% | viability, T/C [21] 74.3% | viability, T/C [22] 69.2% | viability, T/C [23] 68.3% | viability, T/C [24] 63.4% | viability, T/C [25] 70.5% | viability, T/C [26] 88.6% | viability, T/C [27] 72.4% | viability, T/C [28] 79.8% | viability, T/C [29] 71.2% | viability, T/C [30] 58.4% | viability, T/C [31] 84.9% | viability, T/C [32] 78.4% | viability, T/C [33] 89.5% | viability, T/C [34] 79.2% | viability, T/C [35] 67.2% | viability, T/C [36] 63.4%
5.92: pIC50 (second compound 0.0316 µM)
< 5.00: pIC50 (second compound 0.1 µM) | pIC50 (second compound 0.316 µM) | pIC50 (second compound 1 µM) | pIC50 (second compound 3.16 µM) | pIC50 (second compound 10 µM)

COc1cccc2c1C(=O)c1c(O)c3c(c(O)c1C2=O)CC(O)(C(=O)CO)CC3OC1CC(N)C(O)C(C)O1 (stereo unspecified) + Cc1cnc(CNC(=O)c2c(=O)c3ccc(N4CCCN(C)CC4)nc3n3c2sc2ccccc23)cn1
5.89: pIC50 (second compound 1 µM)
5.85: pIC50 (second compound 3.16 µM)
5.95: pIC50 (second compound 10 µM)
6.01: pIC50 (second compound 0.0316 µM)
6.02: pIC50 (second compound 0.1 µM)
5.93: pIC50 (second compound 0.316 µM)
inactive: viability, T/C [1] 100% | viability, T/C [2] 65.7% | viability, T/C [3] 78.6% | viability, T/C [4] 46.5% | viability, T/C [5] 33.9% | viability, T/C [6] 25.7% | viability, T/C [7] 89.3% | viability, T/C [8] 69.5% | viability, T/C [9] 78.9% | viability, T/C [10] 48.7% | viability, T/C [11] 34.8% | viability, T/C [12] 30.1% | viability, T/C [13] 83.3% | viability, T/C [14] 81.8% | viability, T/C [15] 73% | viability, T/C [16] 51.5% | viability, T/C [17] 37.3% | viability, T/C [18] 30% | viability, T/C [19] 73.3% | viability, T/C [20] 86.8% | viability, T/C [21] 80.1% | viability, T/C [22] 54.8% | viability, T/C [23] 33.7% | viability, T/C [24] 29.5% | viability, T/C [25] 95.4% | viability, T/C [26] 80.4% | viability, T/C [27] 79.2% | viability, T/C [28] 54.7% | viability, T/C [29] 36.5% | viability, T/C [30] 34.2% | viability, T/C [31] 74.2% | viability, T/C [32] 82.6% | viability, T/C [33] 75% | viability, T/C [34] 50.4% | viability, T/C [35] 35.6% | viability, T/C [36] 26.7%

Cc1[nH]c2ccccc2c1CCNCc1ccc(/C=C/C(=O)NO)cc1 + Cc1[nH]c2ccc(F)cc2c1-c1nc2c3cccnc3c3ncccc3c2[nH]1
< 6.50: pIC50 (second compound 0.0316 µM) | pIC50 (second compound 0.1 µM) | pIC50 (second compound 0.316 µM) | pIC50 (second compound 1 µM) | pIC50 (second compound 3.16 µM) | pIC50 (second compound 10 µM)
inactive: viability, T/C (second compound 0.0316 µM, first compound 0.000999 µM) 113% | viability, T/C (second compound 0.0316 µM, first compound 0.00316 µM) 92.7% | viability, T/C (second compound 0.0316 µM, first compound 0.00999 µM) 110% | viability, T/C [1] 98.6% | viability, T/C (second compound 0.0316 µM, first compound 0.0999 µM) 101% | viability, T/C [3] 102% | viability, T/C (second compound 0.1 µM, first compound 0.000999 µM) 127% | viability, T/C (second compound 0.1 µM, first compound 0.00316 µM) 108% | viability, T/C (second compound 0.1 µM, first compound 0.00999 µM) 102% | viability, T/C [7] 93% | viability, T/C (second compound 0.1 µM, first compound 0.0999 µM) 111% | viability, T/C [9] 94% | viability, T/C (second compound 0.316 µM, first compound 0.000999 µM) 96.6% | viability, T/C (second compound 0.316 µM, first compound 0.00316 µM) 97.2% | viability, T/C (second compound 0.316 µM, first compound 0.00999 µM) 121% | viability, T/C [13] 105% | viability, T/C (second compound 0.316 µM, first compound 0.0999 µM) 115% | viability, T/C [15] 98.9% | viability, T/C (second compound 1 µM, first compound 0.000999 µM) 74.5% | viability, T/C (second compound 1 µM, first compound 0.00316 µM) 93.9% | viability, T/C (second compound 1 µM, first compound 0.00999 µM) 114% | viability, T/C [19] 112% | viability, T/C (second compound 1 µM, first compound 0.0999 µM) 103% | viability, T/C [21] 111% | viability, T/C (second compound 3.16 µM, first compound 0.000999 µM) 64.2% | viability, T/C (second compound 3.16 µM, first compound 0.00316 µM) 73.7% | viability, T/C (second compound 3.16 µM, first compound 0.00999 µM) 68.2% | viability, T/C [25] 73.9% | viability, T/C (second compound 3.16 µM, first compound 0.0999 µM) 75.2% | viability, T/C [27] 78.9% | viability, T/C (second compound 10 µM, first compound 0.000999 µM) 52.1% | viability, T/C (second compound 10 µM, first compound 0.00316 µM) 66.2% | viability, T/C (second compound 10 µM, first compound 0.00999 µM) 64.7% | viability, T/C [31] 65.7% | viability, T/C (second compound 10 µM, first compound 0.0999 µM) 61.1% | viability, T/C [33] 67.6%
